According to paper PMC9786614, “Nerve Targeting via Myelin Protein Zero and the Impact of Dimerization on Binding Affinity” (Molecules, 2022):
Entries after “also recorded” stand apart in the source; their conditions may differ. Read-outs that look alike come from different tables or passages of the source. Residues, ends and D or L forms follow the SMILES beside them. *: point of attachment. X2 = CC1(C)C(=C/C=C/C=C/C2=[N+](CCCCS(=O)(=O)O)c3ccc(S(=O)(=O)[O-])cc3C2(C)C)N(CCCCCC(=O)NCCN2C(=O)CC(*)C2=O)c2ccc(S(=O)(=O)O)cc21

How the values were obtained:
[1] = not given; remark: listed apart in the source
[2] = not given; remark: listed apart in the source
[3] = not given; remark: listed apart in the source
[4] = target: T1, myelin protein zero (P0) (Rattus norvegicus, UniProt P06907); assay: Saturation binding by flow cytometry on P0-expressing Schwannoma cells; settings: flow cytometry
T1 construct: RT4-D12 Schwannoma cells were selected for in vitro experiments based on their origin and their specific P0-expressing properties; endogenous in cells; host or cells: RT4-D12 Schwannoma cells
T1 sequence (P06907 30-248): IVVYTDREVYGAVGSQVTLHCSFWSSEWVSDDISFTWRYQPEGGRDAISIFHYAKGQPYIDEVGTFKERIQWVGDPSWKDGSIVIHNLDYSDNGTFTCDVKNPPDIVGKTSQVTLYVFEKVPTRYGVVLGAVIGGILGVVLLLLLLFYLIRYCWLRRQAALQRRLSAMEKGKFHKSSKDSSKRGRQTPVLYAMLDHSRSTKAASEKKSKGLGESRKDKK
Procedure: RT4-D12 Schwannoma cells were selected for in vitro experiments based on their origin and their specific P0-expressing properties.
All chemicals were received from Actu-All Chemical (Oss, The Netherlands), Sigma Aldrich (St. Louis, MO, USA), Tokyo Chemical Industry (Tokyo, Japan), Biosolve BV (Valkenswaard, The Netherlands), VWR Chemicals (Solon, OH, USA) and used without further purification. DMF and DMSO were dried over four Å molecular sieves at least for 24 h prior to use. Preparative high-pressure liquid chromatography (prep-HPLC) was performed on a Waters HPLC system (Waters Chromatography B.V., Etten-Leur, The Netherlands) using a 2545 quaternary gradient module pump and a 2489 UV detector. Dr. Maisch ReproSil-Pur 120 C18-AQ 10 μM (250 mm × 20 mm) column (Dr. Maisch HPLC GmbH, Ammerbuch-Entringen, Germany) was applied operating flow rate of 12 mL/min. HPLC analysis was carried out on Waters Alliance 2690 using a Waters symmetry C18 column (2.1 × 150 mm) with a gradient of 0.1% TFA in H2O/MeCN 95:5 to 0.1% TFA in H2O/MeCN 5:95 in 17 min (0.3 mL/min). Mass spectrometry was performed on a Microflex LT/SH MALDI-TOF mass spectrometer (Bruker, Billerica, MA, USA). Lyophilization was performed with a VaCo 2-II lyophilizer (Zirbus technology GmbH, Bad Grund (Harz), Germany). Absorption spectrometry was performed using a UV1280 UV–vis spectrometer (Shimadzu, Kyoto, Japan), and fluorescence spectrometry was performed using an LS55 (Perkin Elmer, Waltham, MA, USA). The fluorescence spectra at different temperatures were measured on an Agilent Cary Eclipse (Agilent Cary Eclipse, Santa Clara, CA, USA). NMR spectra were measured on a Bruker Avance 300 (Bruker, Billerica, MA, USA) operating at 300 MHz for 1 H and 75.00 MHz for 13 C, using the residual solvents (CDCl3 and DMSO-d6) as internal references, and on a Bruker Advance III spectrometer operating at 600 MHz for 1H and equipped with a 2.5 mm PH SEI probe (Bruker, Billerica, MA, USA). For photostability, a prototype D-Light P surgical laparoscope (KARL STORZ, Tuttlingen, Germany) was used. Fluorescence confocal imaging was performed using a SP8 WLL confocal microscope (Leica Microsystems, Wetzlar, Germany). Obtained images were analyzed using Leica Confocal Software (Leica Microsystems). Mean fluorescence intensity values per sample were measured using a LSRII flow cytometer (BD Biosciences, Franklin Lakes, NJ, USA) with APC-A settings (635 nm laser and 750 nm long-pass filter). The binding constant (KD) of the normalized geometric means were fitted with equations in the Prism 5 software (GraphPad, San Diego, CA, USA). Statistical evaluation (Student’s t-test) for all properties was performed in the Prism 5 software. […]
Flow cytometric analysis was performed using RT4-D12 Schwannoma cells after incubation with either Cy5-P0_101–125 or Cy5-(P0_101–125)2. […] Cells were gated on Forward Scatter and Side Scatter, and a minimum of 10,000 viable cells were analyzed per sample. […]
For evaluation of the differences in signal intensity per concentration between Cy5-P0_101–125 and Cy5-(P0_101–125)2 (5–1000 nM), the mean signal intensity of Cy5-P0_101–125 at 1000nM was set at 100%, and intensities measured at other tracer concentrations or for Cy5-(P0_101–125)2 were calculated as % increase or decrease from this point. The KD values of the evaluated peptides were calculated using the “Binding-Saturation, One site—Total” nonlinear regression equation, as described previously.

[5] = tested on: RT4-D12 Schwannoma cells; assay: Fluorescence confocal microscopy of P0 staining; format: cell-based; settings: 1 h at 4 °C
Procedure: RT4-D12 Schwannoma cells were trypsinized and seeded onto 35 mm culture dishes that contained a glass insert (MatTek co, Emu Plains, New South Wales, Australia) two days prior to the imaging experiment. Then, 0.5–1000 nM Cy5-P0_101–125 or Cy5-(P0_101–125)2 was added one hour prior to imaging (incubation at 4 °C; n = 3 per tracer). Peptide solutions were sonicated for 20 s prior to addition to prevent aggregation of the peptide in solution. Lysotracker (lysotracker green; 2 µL/mL DND-26, Thermo Fisher, Waltham, MA, USA) and Hoechst (33,342, 1 mg/mL, 1:500, Thermo Fisher) were added to the to provide staining of lysosomes and the nucleus, respectively.
Images were acquired following Cy5 excitation at 633 nm. Emission was collected between 650–700 nm. For visualization of the lysosomes in the cells, a 488 nm laser was used for excitation, while emission was collected between 500–550 nm. Hoechst was excited at 405 nm, and emission was collected between 410–460 nm. Fluorescence confocal images were acquired using a Leica SP8 WL at sequential settings and 63× magnification. Image analysis was performed using Leica Confocal Software (Leica Microsystems). Semi-quantitative analysis of the Cy5 signal intensity was performed using the quantification tool in Fiji software according to previously described methods.

[6] = tested on: serum protein; assay: Serum protein binding; format: in vitro ADME; settings: serum; protocol modified from Hensbergen et al. [34]; mean ± spread
Procedure: (§1) The molar extinction coefficient (ε), quantum yield (QY), brightness, lipophilicity, serum protein binding, photo- and chemical stability, and stacking behavior were determined according to a slight modification of the protocol put forward by Hensbergen et al.. Sulfonate-(SO3)Cy5(SO3)-COOH [27] was measured and used as a control for QY.

[7] = Photostability (photobleaching); format: physicochemical; settings: illumination in 5 min cycles, 30 min in total, Storz D-Light P system at 50 mm, fluorescence read-out
Procedure: as §1
For photostability measurements, the cuvettes were sealed and illuminated for 5 min (30 min in total) by a modified Storz D-Light P fluorescence imaging system at a distance of 50 mm in a dark environment. After each illumination cycle, the fluorescence intensity was determined.

[8] = Stacking behavior (absorbance spectra, dilution series); format: physicochemical; settings: absorbance spectra in water, dilution series 8 μM to 0.5 μM, normalized
Procedure: as §1
To determine the stacking behavior of the mono- and bi-labeled compounds and their corresponding dyes, a dilution series of Cy5-(P0_101–125)2 and Cy5-P0_101–125 were made, consisting of the dye concentrations ranging from 8 μM to 0.5 μM.
Normalization of the data set for stacking behavior was performed using Equation (1):(1) x(normalized)=(x−xmin)/range of x where range of x= xmax−xmin .

[9] = not given; remark: listed apart in the source
[10] = Serum protein binding; format: in vitro ADME; settings: protocol modified from Hensbergen et al. [34]; mean ± spread
Procedure: as §1

[11] = Lipophilicity logP(o/w); format: physicochemical; settings: octanol/water; protocol modified from Hensbergen et al. [34]; mean ± spread
Procedure: as §1

[12] = Stability towards glutathione; format: physicochemical; settings: 2 mM compound mixed 1:1 with 4 mM reduced glutathione, 0.1 M HEPES pH 7.4 (N2 sparged), 37 degrees, amount relative to t = 0
Procedure: For the stability towards glutathione, which is used as a measure of stability towards thiols and amines in vivo, 125 µL of a 2 mM solution of the compound in (0.1 M HEPES pH 7.4, pre-sparged with N2) was added to 125 µL of a 4 mM solution of reduced glutathione in 0.1M HEPES pH 7.4 (pre-sparged with N2). The solutions were mixed and then placed in a sample manager. A sample was analyzed at 37 degrees over 6 h in total to determine the amount of compound relative to t = 0.

[13] = free dye; previously reported; ref Spa et al. [27]; cited from earlier work
Description: Table 1 Chemo- and photophysical properties of mono-labeled Cy5-P0_101–125 and bi- labeled Cy5-(P0_101–125)2 and corresponding free cyanine dyes. | column: Sulfonate-(SO3)Cy5(SO3)-COOH *

Compound | stokes shift [nm] | λEm in H2O/PBS [1] [nm] | λex in H2O/PBS [2] [nm] | Brightness in PBS [3] [M⁻¹ cm⁻¹] | Nonspecific binding ([4]; saturation binding fit, RT4-D12 cells) | Kd ([4]; saturation binding, RT4-D12 Schwannoma cells, 0–2000 nM tracer in 0.1% BSA in PBS, 1 h at 4 °C, triplicate, One site—Total fit) [nM] | P0-related staining at 100 nM tracer [5] | fraction unbound [6] | Photobleaching, % [7] [%] | stacking behavior (dye stacking / aggregation) [8] | loss of fluorescence intensity with temperature increase [9] [%] | Serum protein binding, % [10] [%] | logP(o/w) [11] | Glutathione stability (at 6 h), % [12] [%] | Glutathione stability (at 6 h), % [13] [%] | Net charge [13] | Photobleaching, % [13] [%] | Serum protein binding, % [13] [%] | logP(o/w) [13]
CC[C@H](C)[C@H](NC(=O)[C@H](CC(=O)O)NC(=O)[C@@H]1CCCN1C(=O)[C@@H]1CCCN1C(=O)[C@H](CC(N)=O)NC(=O)[C@H](CCCCN)NC(C)=O)C(=O)N[C@H](C(=O)NCC(=O)N[C@@H](CCCCN)C(=O)N[C@H](C(=O)N[C@@H](CO)C(=O)N[C@@H](CCC(N)=O)C(=O)N[C@H](C(=O)N[C@H](C(=O)N[C@@H](CC(C)C)C(=O)N[C@@H](Cc1ccc(O)cc1)C(=O)N[C@H](C(=O)N[C@@H](Cc1ccccc1)C(=O)N[C@@H](CCC(=O)O)C(=O)N[C@@H](CCCCN)C(=O)N[C@H](C(=O)N1CCC[C@H]1C(=O)N[C@H](C(=O)N[C@@H](CCCNC(=N)N)C(=O)N[C@@H](Cc1ccc(O)cc1)C(=O)N[C@@H](CSC1CC(=O)N(CCNC(=O)CCCCCN2C(=C/C=C/C=C/C3=[N+](CCCCS(=O)(=O)O)c4ccc(S(=O)(=O)[O-])cc4C3(C)C)C(C)(C)c3cc(S(=O)(=O)O)ccc32)C1=O)C(N)=O)[C@@H](C)O)C(C)C)C(C)C)[C@@H](C)O)C(C)C)[C@@H](C)O)C(C)C (some centres unmarked) [Cy5-P0_101–125] (Ac-KNPPDIVGKTSQVTLYVFEKVPTRYC(X2)-NH2) | 21 | 671 | 650 | 55.7 | 0.020 | 105 | Only a faint P0-related signal | 0.11 | 94 | higher “shoulder peak”; also recorded: typical “stacking shoulder” appears only for a mono-labeled Cy5-P0_101–125 at higher concentration | 70 |  |  |  |  |  |  |  | 
COOH-(SO3)Cy5(SO3)-COOH [reference compound] |  |  |  |  |  |  |  |  | 95 |  |  | 70 ± 4 | −1.62 ± 0.01 | 95 |  |  |  |  | 
Sulfonate-(SO3)Cy5(SO3)-COOH |  |  |  |  |  |  |  |  |  |  |  |  |  |  | 95 | −2 | 93 | 49 ± 8 | −1.42 ± 0.00
